# ChEMBL document CHEMBL1126617, “A topochemical approach to explain morphiceptin bioactivity” (J Med Chem, 1993)
# How the values were obtained:
# Mu-type opioid receptor = Mu-type opioid receptor (Cavia porcellus, UniProt P97266); assay: In vitro inhibitory activity against mu opioid receptor using guinea pig ileum (GPI) assay; type: tissue-based
# [1] = target: Delta-type opioid receptor (Mus musculus, UniProt P32300); assay: In vitro inhibitory activity against delta opioid receptor using mouse vas deferens (MVD) assay; type: tissue-based
# Delta-type opioid receptor, sequence (P32300 whole entry): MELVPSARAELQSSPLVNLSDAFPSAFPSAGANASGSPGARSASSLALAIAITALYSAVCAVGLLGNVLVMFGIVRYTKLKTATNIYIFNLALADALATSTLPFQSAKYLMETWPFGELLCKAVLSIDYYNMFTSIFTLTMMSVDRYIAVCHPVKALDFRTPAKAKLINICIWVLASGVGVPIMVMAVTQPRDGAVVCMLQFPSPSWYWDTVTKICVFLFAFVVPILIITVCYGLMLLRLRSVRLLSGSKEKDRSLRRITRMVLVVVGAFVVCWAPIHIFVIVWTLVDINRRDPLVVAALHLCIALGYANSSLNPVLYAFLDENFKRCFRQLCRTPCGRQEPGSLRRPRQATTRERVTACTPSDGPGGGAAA
# Mu-type opioid receptor, sequence (P97266 whole entry): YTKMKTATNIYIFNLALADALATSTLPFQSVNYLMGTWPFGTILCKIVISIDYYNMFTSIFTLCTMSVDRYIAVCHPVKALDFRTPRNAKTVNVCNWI
SMILES,IC50 (Mu-type opioid receptor),IC50 [1]
CN(C(=O)[C@@H]1CCCN1C(=O)[C@@H](N)Cc1ccc(O)cc1)[C@H](Cc1ccccc1)C(=O)N1CCC[C@@H]1C(N)=O,2.66 µM,565 µM
CN(C(=O)[C@@H]1CCCN1C(=O)[C@@H](N)Cc1ccc(O)cc1)[C@H](Cc1ccccc1)C(=O)N1CCC[C@H]1C(N)=O,> 100 µM,> 1000 µM
CN(C(=O)[C@@H]1CCCN1C(=O)[C@@H](N)Cc1ccc(O)cc1)[C@@H](Cc1ccccc1)C(=O)N1CCC[C@H]1C(N)=O,0.17 µM,1.79 µM
NC(=O)[C@H]1CCCN1C(=O)[C@@H](Cc1ccccc1)NC(=O)[C@@H]1CCCN1C(=O)[C@@H](N)Cc1ccc(O)cc1,0.557 µM,4.81 µM
NC(=O)[C@@H]1CCCN1C(=O)[C@@H](Cc1ccccc1)NC(=O)[C@@H]1CCCN1C(=O)[C@@H](N)Cc1ccc(O)cc1,0.109 µM,0.594 µM
C[C@@H](C(=O)N[C@@H](Cc1ccccc1)C(=O)N1CCC[C@@H]1C(N)=O)N(C)C(=O)[C@@H](N)Cc1ccc(O)cc1,0.0306 µM,0.202 µM
C[C@H](NC(=O)[C@@H](N)Cc1ccc(O)cc1)C(=O)N[C@@H](Cc1ccccc1)C(=O)N1CCC[C@@H]1C(N)=O,,> 100 µM
NC(=O)[C@H]1CCCN1C(=O)[C@H](Cc1ccccc1)NC(=O)[C@@H]1CCCN1C(=O)[C@@H](N)Cc1ccc(O)cc1,0.0287 µM,1.51 µM
CN(C(=O)[C@@H]1CCCN1C(=O)[C@@H](N)Cc1ccc(O)cc1)[C@@H](Cc1ccccc1)C(=O)N1CCC[C@@H]1C(N)=O,0.0207 µM,1.25 µM
NC(=O)[C@@H]1CCCN1C(=O)[C@H](Cc1ccccc1)NC(=O)[C@@H]1CCCN1C(=O)[C@@H](N)Cc1ccc(O)cc1 [MORPHICEPTIN],0.552 µM,3.69 µM
